Experimental data from patent publication US7598382B2, “Aryl substituted imidazoquinolines” (Coley Pharmaceutical Group, Inc., priority 2002, dated 2009).

Compound	melting point [°C]
COCCc1nc2c(N)nc3ccc(-c4cccnc4)cc3c2n1CCCN1CCCC1=O [Example 188, 1-{3-[4-Amino-2-(2-methoxyethyl)-8-(pyridin-3-yl)-1H-imidazo[4,5-c]quinolin-1-yl]propyl}pyrrolidin-2-one]	221 to 224
CCOCc1nc2c(N)nc3cc(-c4ccccc4)ccc3c2n1CC1CCN(S(C)(=O)=O)CC1 [Example 193, 2-Ethoxymethyl-1-{[1-(methanesulfonyl)piperidin-4-yl]methyl}-7-phenyl-1H-imidazo[4,5-c]quinolin-4-amine]	224 to 225
Nc1nc2cc(-c3ccccc3)ccc2c2c1nc(CC1CC1)n2CCOc1ccccc1 [Example 196, 2-Cyclopropylmethyl-1-(2-phenoxyethyl)-7-phenyl-1H-imidazo[4,5-c]quinolin-4-amine]	188 to 189
CCOCc1nc2c(N)nc3cc(-c4ccccc4)ccc3c2n1CCOc1ccccc1 [Example 197, 2-Ethoxymethyl-1-(2-phenoxyethyl)-7-phenyl-1H-imidazo[4,5-c]quinolin-4-amine]	159 to 160
COCCc1nc2c(N)nc3cc(-c4ccccc4)ccc3c2n1CCCCNS(C)(=O)=O [Example 199, N-{4-[4-Amino-2-(2-methoxyethyl)-7-phenyl-1H-imidazo[4,5-c]quinolin-1-yl]butyl}methanesulfonamide]	201 to 202
CCCc1nc2c(N)nc3cc(-c4ccccc4)ccc3c2n1CC(C)(C)NS(C)(=O)=O [Example 200, N-[2-(4-Amino-7-phenyl-2-propyl-1H-imidazo[4,5-c]quinolin-1-yl)-1,1-dimethylethyl]methanesulfonamide]	135 to 141
CCOCc1nc2c(N)nc3cc(-c4ccccc4)ccc3c2n1CC(C)(C)NC(=O)C1CCCCC1 [Example 202, Cyclohexane N-[2-(4-amino-2-ethoxymethyl-7-phenyl-1H-imidazo[4,5-c]quinolin-1-yl)-1,1-dimethylethyl]carboxamide]	195 to 198
CCOCc1nc2c(N)nc3cc(-c4ccccc4)ccc3c2n1CC(C)(C)NC(=O)NC1CCCCC1 [Example 203, N-[2-(4-Amino-2-ethoxymethyl-7-phenyl-1H-imidazo[4,5-c]quinolin-1-yl)-1,1-dimethylethyl]-N′-cyclohexylurea]	152 to 156
Nc1nc2cc(-c3ccccc3)ccc2c2c1ncn2CCCN1CCCC1=O [Example 204, 1-[3-(4-Amino-7-phenyl-1H-imidazo[4,5-c]quinolin-1-yl)propyl]pyrrolidin-2-one]	201 to 204
CCOCc1nc2c(N)nc3cc(-c4ccccc4)ccc3c2n1CCCN1CCCC1=O [Example 205, 1-[3-(4-Amino-2-ethoxymethyl-7-phenyl-1H-imidazo[4,5-c]quinolin-1-yl)propyl]pyrrolidin-2-one]	199 to 203
COCCc1nc2c(N)nc3cc(-c4ccccc4)ccc3c2n1CCCN1CCCC1=O [Example 206, 1-{3-[4-Amino-2-(2-methoxyethyl)-7-phenyl-1H-imidazo[4,5-c]quinolin-1-yl]propyl}pyrrolidin-2-one]	187 to 191
CCOCc1nc2c(N)nc3cc(-c4ccccc4)ccc3c2n1CCCCS(=O)(=O)N(C)C [Example 366, Dimethyl 4-[4-amino-2-ethoxymethyl-7-phenyl-1H-imidazo[4,5-c]quinolin-1-yl]butane-1-sulfonamide]	207 to 208
CCOCc1nc2c(N)nc3cc(-c4cccnc4)ccc3c2n1CCCCS(N)(=O)=O [Example 368, 4-[4-Amino-2-ethoxymethyl-7-(pyridin-3-yl)-1H-imidazo[4,5-c]quinolin-1-yl]butane-1-sulfonamide]	250 to 251.5
CCOCc1nc2c(N)nc3cc(-c4cccnc4)ccc3c2n1CCCCS(=O)(=O)NC [Example 369, Methyl 4-[4-amino-2-ethoxymethyl-7-(pyridin-3-yl)-1H-imidazo[4,5-c]quinolin-1-yl]butane-1-sulfonamide]	216 to 218
CCOCc1nc2c(N)nc3cc(-c4cccnc4)ccc3c2n1CCCCCS(=O)(=O)NC [Example 371, Methyl 5-[4-amino-2-ethoxymethyl-7-(pyridin-3-yl)-1H-imidazo[4,5-c]quinolin-1-yl]pentane-1-sulfonamide]	191 to 192
CCCC(=O)NCCCCn1c(COCC)nc2c(N)nc3cc(-c4cccnc4)ccc3c21 [Example 372, N-{4-[4-Amino-2-ethoxymethyl-7-(pyridin-3-yl)-1H-imidazo[4,5-c]quinolin-1-yl]butyl}butyramide]	150 to 152
CCOCc1nc2c(N)nc3cc(-c4cccnc4)ccc3c2n1CCCCNC(=O)C(C)C [Example 373, N-{4-[4-Amino-2-ethoxymethyl-7-(pyridin-3-yl)-1H-imidazo[4,5-c]quinolin-1-yl]butyl}-2-methylpropanamide]	200 to 202
CCCS(=O)(=O)NCCCCn1c(COCC)nc2c(N)nc3cc(-c4cccnc4)ccc3c21 [Example 376, N-{4-[4-Amino-2-ethoxymethyl-7-(pyridin-3-yl)-1H-imidazo[4,5-c]quinolin-1-yl]butyl}propane-1-sulfonamide]	178 to 180
CCOCc1nc2c(N)nc3cc(-c4cccnc4)ccc3c2n1CCCCNC(=O)NC1CCCC1 [Example 377, N-{4-[4-Amino-2-ethoxymethyl-7-(pyridin-3-yl)-1H-imidazo[4,5-c]quinolin-1-yl]butyl}-N′-cyclopentylurea]	190 to 192
CCCNC(=O)NCCCCn1c(COCC)nc2c(N)nc3cc(-c4cccnc4)ccc3c21 [Example 378, N-{4-[4-Amino-2-ethoxymethyl-7-(pyridin-3-yl)-1H-imidazo[4,5-c]quinolin-1-yl]butyl}-N′-propylurea]	191 to 193
CCOCc1nc2c(N)nc3cc(-c4cccnc4)ccc3c2n1CCNC(=O)C(C)C [Example 386, N-{2-[4-Amino-2-ethoxymethyl-7-(pyridin-3-yl)-1H-imidazo[4,5-c]quinolin-1-yl]ethyl}-2-methylpropanamide]	213 to 215
CCOCc1nc2c(N)nc3cc(-c4cccnc4)ccc3c2n1CCN1CCCS1(=O)=O [Example 389, 1-[2-(1,1-Dioxo-1-isothiazolidin-2-yl)ethyl]-2-ethoxymethyl-7-(pyridin-3-yl)-1H-imidazo[4,5-c]quinolin-4-amine]	244 to 246

Now from value to compound:

melting point [°C]	Compound
202 to 205	COCCc1nc2c(N)nc3ccc(-c4csc5ccccc45)cc3c2n1CCCN1CCCC1=O [Example 190, 1-{3-[4-amino-8-(benzo[b]thiophen-3-yl)-2-(2-methoxyethyl)-1H-imidazo[4,5-c]quinolin-1-yl]propyl}pyrrolidin-2-one]
194 to 195	CCOCc1nc2c(N)nc3cc(-c4ccccc4)ccc3c2n1CC1CCN(C(=O)OC(C)(C)C)CC1 [Example 191, tert-Butyl 4-[(4-amino-2-ethoxymethyl-7-phenyl-1H-imidazo[4,5-c]quinolin-1-yl)methyl]piperidine-1-carboxylate]
142 to 143	CCOCc1nc2c(N)nc3cc(-c4ccccc4)ccc3c2n1CC1CCNCC1 [Example 192, 2-Ethoxymethyl-7-phenyl-1-(piperidin-4-ylmethyl)-1H-imidazo[4,5-c]quinolin-4-amine]
208 to 209	CCOCc1nc2c(N)nc3cc(-c4ccccc4)ccc3c2n1CC1CCN(C(=O)N2CCOCC2)CC1 [Example 195, 2-Ethoxymethyl-1-{[1-(morpholin-4-ylcarbonyl)piperidin-4-yl]methyl}-7-phenyl-1H-imidazo[4,5-c]quinolin-4-amine]
197 to 198	COc1ccc(Cc2nc3c(N)nc4cc(-c5ccccc5)ccc4c3n2CCOc2ccccc2)cc1 [Example 198, 2-(4-Methoxybenzyl)-1-(2-phenoxyethyl)-7-phenyl-1H-imidazo[4,5-c]quinolin-4-amine]
202 to 204	CCOCc1nc2c(N)nc3cc(-c4cccnc4)ccc3c2n1CC(C)(C)OCCS(C)(=O)=O [Example 363, 2-Ethoxymethyl-1-{2-[2-(methanesulfonyl)ethoxy]-2-methylpropyl}-7-(pyridin-3-yl)-1H-imidazo[4,5-c]quinolin-4-amine]
186 to 188	CCOCc1nc2c(N)nc3cc(-c4cncc(OC)c4)ccc3c2n1CC(C)(C)OCCS(C)(=O)=O [Example 364, 2-Ethoxymethyl-1-{2-[2-(methanesulfonyl)ethoxy]-2-methylpropyl}-7-(5-methoxypyridin-3-yl)-1H-imidazo[4,5-c]quinolin-4-amine]
205 to 206	CCOCc1nc2c(N)nc3cc(-c4cccnc4)ccc3c2n1CCCCS(=O)(=O)N(C)C [Example 365, Dimethyl 4-[4-amino-2-ethoxymethyl-7-(pyridin-3-yl)-1H-imidazo[4,5-c]quinolin-1-yl]butane-1-sulfonamide]
230 to 231.5	CCOCc1nc2c(N)nc3cc(-c4cccnc4)ccc3c2n1CCCCS(=O)(=O)NCc1ccc(OC)cc1 [Example 367, 4-Methoxybenzyl 4-[4-amino-2-ethoxymethyl-7-(pyridin-3-yl)-1H-imidazo[4,5-c]quinolin-1-yl]butane-1-sulfonamide]
159 to 160	CCOCc1nc2c(N)nc3cc(-c4cccnc4)ccc3c2n1CCCCCS(=O)(=O)N(C)C [Example 370, Dimethyl 5-[4-amino-2-ethoxymethyl-7-(pyridin-3-yl)-1H-imidazo[4,5-c]quinolin-1-yl]pentane-1-sulfonamide]
192 to 194	CCOCc1nc2c(N)nc3cc(-c4cccnc4)ccc3c2n1CCCCNC(=O)NC(C)C [Example 379, N-{4-[4-Amino-2-ethoxymethyl-7-(pyridin-3-yl)-1H-imidazo[4,5-c]quinolin-1-yl]butyl}-N′-(1-methylethyl)urea]
233 to 235	CCOCc1nc2c(N)nc3cc(-c4cccnc4)ccc3c2n1CCNS(C)(=O)=O [Example 387, N-{2-[4-Amino-2-ethoxymethyl-7-(pyridin-3-yl)-1H-imidazo[4,5-c]quinolin-1-yl]ethyl}methanesulfonamide]
194 to 196	CCOCc1nc2c(N)nc3cc(-c4cccnc4)ccc3c2n1CCNC(=O)NC(C)C [Example 388, N-{2-[4-Amino-2-ethoxymethyl-7-(pyridin-3-yl)-1H-imidazo[4,5-c]quinolin-1-yl]ethyl}-N′-(1-methylethyl)urea]
